Source: patent US5873359A, “Methods and devices for treating pulmonary vasoconstriction and asthma” (The General Hospital Corporation, priority 1994, dated 1999)

Assays:
[1] = tested on: control lambs; assay: Inhaled NO in control lambs with no drug infusion; type: in vivo, Suffolk lambs; settings: 80 ppm NO, FiO2 0.6-0.7, two lambs
Excerpt: Eight Suffolk lambs weighing 25-35 kg underwent a sterile thoracotomy in order to place a left atrial line, tracheostomy and femoral artery line under general endotracheal anesthesia with halothane/oxygen three days before study. After three days of recovery the lambs underwent sterile placement of a 7 French thermal dilution pulmonary artery monitoring catheter under local anesthesia.
Awake unanesthetized lambs were studied in order to avoid general anesthesia which can blunt hypoxic vasoconstriction. Lambs were placed in a Babraham cage and allowed to drink and eat ad lib. Two studies were performed 2 days apart on each of six lambs. After the study the lambs were sacrificed with an overdose of barbiturate and heir lungs were fixed, stained and examined by light microscopy for pathological changes.
A pulmonary vasodilator dose response curve plotting changes in PAP as a function of inhaled NO concentration during U46619 infusion was produced for eight lambs breathing a series of increasing NO/O2 mixtures of 5, 10, 20, 40, and 80 ppm NO for six minutes (FIG. 1). Each level of NO exposure was followed by six minutes of breathing the oxygen mixture without NO (FIG. 2). A second exposure to NO was examined for similar periods. Subsequently, a control period breathing the oxygen mixture was studied six minutes after ceasing U46619 infusion. At each three and six minute time period after administering or discontinuing NO during the study, we measured mean and phasic pulmonary artery pressure (PAP), left atrial pressure (LAP), systemic arterial pressure (SAP) and central venous pressure (CVP). All pressures were recorded on a Hewlett Packard multi-channel strip chart recorder with transducers zeroed to atmospheric pressure at the mid point of the thorax (e.g., see FIG. 3). Cardiac output (CO) was measured by thermal dilution as the average of two determinations injecting 5 ml of 0° C. Ringers lactate. Pulmonary vascular resistance (PVR) and systemic vascular resistance (SVR) were computed by standard formulae; PVR measured at each inhaled NO concentration is shown in FIG. 4. Appropriate statistical analyses were performed, and all data were expressed as mean ± standard error.
Two control lambs with no drug infusion breathed 80 ppm NO at an F1 O2 of 0.6-0.7. There was no change of mean PAP, SAP, CO or SVR in these lambs.

[2] = tested on: ARDS; assay: NO inhalation in nine additional ARDS patients; type: in vivo, human
Excerpt: Subsequent subjects. Nine additional patients have been treated for ARDS by NO inhalation, for periods up to 28 days.

[3] = tested on: acute hypoxic pulmonary hypertension; assay: Inhaled NO in lambs with pulmonary vasoconstriction induced by hypoxia; type: in vivo
Method: Five awake lambs were studied during a period of breathing a hypoxic gas mixture to induce acute hypoxic pulmonary hypertension. Three lambs were excluded due to sepsis and heart failure. Hemodynamic monitoring techniques similar to those described above were used. We employed a non-rebreathing circuit containing a 25 liter reservoir bag and the Fi O2 was reduced to 0.06-0.08 to produce a mean PAP near 25 mm Hg at a Pa O2 near 30 mm Hg. Either 40 or 80 ppm NO was then added to the inspired gas mixture. Total gas flows were maintained at 35 l/min to prevent rebreathing due to hyperventilation. The inspired Fi O2 was monitored with n electrode (model 5590, Hudson Co., Temecala, Calif.) and pure CO2 was added to the inspired gas to maintain the end tidal CO2 concentration at 4.5-6%. Measurements of central hemodynamics and gas exchange were obtained at baseline, during hypoxia, and at 3 and 6 minutes of No breathing during hypoxia. Comparisons were performed using paired t-tests.

[4] = tested on: PPHN; assay: NO inhalation in two more infants with PPHN; type: in vivo, human
Excerpt: Subsequent subjects. Two more infants with PPHN have been treated by NO inhalation.

[5] = tested on: severe acute respiratory failure; assay: Inhaled NO in humans with severe acute respiratory failure (preliminary); type: in vivo, human; settings: approximately 20 ppm inhaled, up to one month, five humans
Excerpt: It is likely that inhaled NO acts by diffusing into the vascular space adjacent to the alveoli and causing relaxation of pulmonary vascular smooth muscle, thus permitting an increase in pulmonary blood flow and gas exchange. […] By localizing delivery of NO in a gaseous form directly to the lungs, the dissolved NO can immediately exert its pharmacological effect on target vascular smooth muscle, prior to inactivation of the NO by binding to hemoglobin. At the same time, the rapid binding of NO to hemoglobin ensures that any vasodilatory action of inhaled NO is solely a local or selective effect in the blood vessels of the lung, with no concomitant vasodilation downstream in the systemic circulation.

[6] = tested on: primary pulmonary hypertension; settings: cited from earlier work
[7] = dilute aqueous solution exposed to oxygen; cited from earlier work
[8] = hypoxia + 40-80 ppm NO, FiO2 0.06-0.08, n = 5, mean ± S.E.
[9] = hypoxia + 40-80 ppm NO, n = 5, mean ± S.E.
[10] = hypoxia + 40-80 ppm NO, n = 5, mean ± S.E., p < .01 vs hypoxia

In the case of `[N]=O` [NO, nitric oxide], the CO [1] is reported as “no change”, the SAP [1] is reported as “no change” and the SVR [1] is reported as “no change”. The “mean PAP” value [1] was “no change”, the methemoglobin levels ([2]; NO inhalation up to 28 days) was “No important increase of methemoglobin levels” and the PAP ([2]; during NO breathing) was “reduced PAP”. The “QVA /QT” value ([2]; during NO breathing) was “marked reductions of QVA /QT”, the survival ([2]; nine patients, up to 28 days) was “Seven survived” and the “Pa O2 during hypoxia with vs without NO” value ([3]; 40 or 80 ppm NO) was “similar”. The “Pv O2 during hypoxia with vs without NO” value ([3]; 40 or 80 ppm NO) was “similar”, the “drop of mean PVR” value ([3]; 40 or 80 ppm NO) was 33% and the pulmonary artery pressure ([3]; 40 or 80 ppm NO) was “returned to control levels”. For the same compound, the “Pa CO2” value [3, 8] was 40.0 ± 2.7 mm Hg, the “PaO2” value [3, 8] was 31.1 ± 1.7 mm Hg and the “Pv O2” value [3, 8] was 19.8 ± 3.2 mm Hg. The pHa [3, 8] was 7.40 ± 0.03, the CO [3, 9] was 7.56 ± 0.79 L/min and the CVP [3, 9] was 2.8 ± 1.6 mm Hg. It also gave an LAP [3, 9] of 4.2 ± 1.0 mm Hg, an SVR [3, 9] of 13.7 ± 1.0 mm Hg/l/min and a PAP [3, 10] of 18.7 ± 1.1 mm Hg. For the same compound, the PVR [3, 10] was 2.01 ± 0.35 mm Hg/l/min, the SAP [3, 10] was 106 ± 5 mm Hg and the preductal oxygenation ([4]; 20-80 ppm NO) was “increases in preductal oxygenation”. For the same compound, the response ([4]; 20-80 ppm NO) was “excellent response”, the survival ([4]; 20-80 ppm NO, two infants) was “both survived longterm” and the “need for ECMO” value ([4]; one of the infants, NO inhalation alone) was “ECMO was altogether avoided”. For the same compound, the “QVA /QT (right-to-left shunt)” value [5] was “reduces both pulmonary arterial pressure and QVA /QT”, the blood oxygen levels [5] was “marked increase of the patients' blood oxygen levels” and the pulmonary arterial pressure [5] was “reduces both pulmonary arterial pressure and QVA /QT”. For the same compound, the “PAP difference as percentage of ΔPAP” value ([6]; 40 ppm NO) was “about 6%”, the “difference in PAP versus air” value ([6]; 40 ppm NO) was 2.9 mm Hg and the “average PAP” value ([6]; breathing 40 ppm NO, seven patients, 59.6 mm Hg breathing air) was 56.7 mm Hg. The “average reduction in PVR” value ([6]; during inhalation of NO) was 9%, the “decrease in SAP” value ([6]; during inhalation of NO) was “No corresponding decrease in SAP” and the half life [7] was “less than 10 seconds”.
